As usually defined, the GI50 is the concentration giving 50% growth inhibition. Lower therefore signals more potent growth inhibition. What is called IC50 is the concentration needed to halve the response being measured.

In patent publication US20240408169A1 (priority 2023, published 2024) one finds GI50 and IC50 data, which are given here for twelve molecules.

*1 amine or outer side, *2 acyl side, *3 side chain or, on linkers, in order; H or OH if unused. Where a SMILES comes first, the peptide text is derived from it. Bridges are numbered along the chain shown (N, C = ends). [ ]: non-standard residue; d: D form. The star is where a group is joined. NMePhe(2-(4-MorPh),5-Cl) = CN[C@@H](Cc1cc(Cl)ccc1-c1ccc(N2CCOCC2)cc1)C(=O)O; X42 = CN([C@@H](Cc1cc(Cl)ccc1-c1cnn(S(=O)(=O)C2CC2)c1)C(=O)[*:2])[*:1]; X46 = CN([C@@H](Cc1cc(Cl)ccc1-c1ccc(S(C)(=O)=O)cc1)C(=O)[*:2])[*:1]; X82 = CN([C@@H](Cc1cc(Cl)ccc1-c1cnn(S(C)(=O)=O)c1)C(=O)[*:2])[*:1]; X18 = CC(=O)N1CCC(=Cc2ccc(Cl)cc2C[C@@H](C(=O)[*:2])N(C)[*:1])CC1; X76 = CN([C@@H](Cc1cc(Cl)ccc1-c1cnn2cccnc12)C(=O)[*:2])[*:1]; NMehhhLys(Me) = CN([C@@H](CCCCCCCN(C)[*:3])C(=O)[*:2])[*:1]; X64 = CN([C@@H](Cc1cc(Cl)ccc1OC1(C)CC1)C(=O)[*:2])[*:1]; X66 = CN([C@@H](Cc1cc(Cl)ccc1-c1cccnc1)C(=O)[*:2])[*:1]; NMe(hhhLys) = CN([C@@H](CCCCCCCN[*:3])C(=O)[*:2])[*:1]; NMe3Pal(2-OMe,5-Cl) = CN[C@@H](Cc1cc(Cl)cnc1OC)C(=O)O; Oxane2carbonyl(2R-CF3) = O=C([C@@]1(C(F)(F)F)CCCCO1)*; cBuCO(3,3-F2-1-CF3) = O=C(C1(C(F)(F)F)CC(F)(F)C1)*; X4 = Cc1ccc(Cl)cc1C[C@@H](C(=O)[*:2])N(C)[*:1]; Pro(trans-4-F) = O=C(O)[C@@H]1C[C@@H](F)CN1; Gly(cPr) = N[C@H](C(=O)O)C1CC1

Test [1] deals with NCI-H1048 cells. As to the kind of experiment: MTT proliferation assay, NCI-H1048.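 Also: Dose-response in 96-well plates over 8 or 10 concentration points, with exposure spanning 3-4 cell doublings.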 The test is classed as cell-based. Conditions: 5 days compound exposure, 1:3 serial dilution starting at 10 μM. (In general: Tetrazolium assays rely on reduction of a dye to a coloured formazan, in cell work by metabolically active cells.)
The target of test [2] is T1, CyclinA2/CDK2 (Homo sapiens, UniProt P20248).
T1 construct: purchased CRELUX Protein Services
As to the kind of experiment: Fluorescence Polarization (FP) competitive binding assay, Cyclin A2/Cdk2.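 Also: plates equilibrated two hours at room temperature before polarization reading, IC50 fitted from eight-concentration compound titration curves.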 Conditions: 8 nM Cyclin A2/Cdk2, 2 nM FAM probe; average of 2-3 independent experiments; read-out: Cyclin A FP IC50. For orientation: In fluorescence polarisation assays a small probe gives low polarisation when free and higher when bound to something large.

Test [3] deals with T2, CyclinE1/CDK2 (Homo sapiens, UniProt P24864).
T2 construct: purchased Eurofins, discovery 14-475
Nature of the test: Fluorescence Polarization (FP) competitive binding assay, Cyclin E1/Cdk2.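 Also: readings taken after two-hour equilibration at room temperature in HEPES buffer with NaCl, DTT, NP-40 and BSA, IC50 fitted from eight-concentration serial dilution series.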 Conditions: 10 nM Cyclin E1/Cdk2, 2 nM FAM probe; average of 2-3 independent experiments; read-out: Cyclin E FP IC50.

The test system of test [4] is OVCAR3 cells. As to the kind of experiment: MTT proliferation assay, OVCAR3.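 Also: compound given as an 8- or 10-point series, one day after plating, with exposure covering roughly 3-4 cell doublings.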 The test is classed as cell-based. The settings on record: 5 days compound exposure, 1:3 serial dilution starting at 10 μM.
For test [5], the system named is WI-38 cells. Nature of the test: MTT proliferation assay, WI-38.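 Also: Eight- or ten-point dilution series, with exposure length chosen to span about three to four cell doublings.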 It is filed as cell-based. The settings on record: 3 days compound exposure, 1:3 serial dilution starting at 10 μM.
The target in test [6] is T3, CyclinB1/CDK1 (Homo sapiens, UniProt P14635).
T3 construct: purchased Eurofins, discovery 14-450
As to the kind of experiment: Fluorescence Polarization (FP) competitive binding assay, Cyclin B1/Cdk1.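 Also: fluorescence polarization read after equilibration at room temperature, with IC50 taken from serially diluted dose-response curves.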 Conditions: 10 nM Cyclin B1/Cdk1, 2 nM FAM probe; average of 2-3 independent experiments; read-out: Cyclin B FP IC50.

With `CC(C)C[C@@H]1NC(=O)[C@@H](N(C)C(=O)[C@@H](NC(=O)[C@@H]2C[C@@H](F)CN2C(=O)[C@@]2(C(F)(F)F)CCCCO2)C2CC2)CCCCCCCN(C)C(=O)[C@H](Cc2cc(Cl)ccc2OC2(C)CC2)N(C)C1=O` [Example 260] ({Oxane2carbonyl(2R-CF3)}-[Pro(trans-4-F)][Gly(cPr)][NMehhhLys(Me)]L[X64]; lactam 3-C), the GI50 in test [1] came out at 40 nM; in test [4] it was 40 nM; in test [5], 6390 nM. Also, the values for the half-maximal inhibitory concentration (IC50) in test [2], in test [3] and in test [6] were 50 nM, 100 nM and 20 nM, respectively.
For the molecule `CC(C)C[C@@H]1NC(=O)[C@@H](N(C)C(=O)[C@@H](NC(=O)[C@@H]2C[C@@H](F)CN2C(=O)C2(C(F)(F)F)CC(F)(F)C2)C2CC2)CCCCCCCN(C)C(=O)[C@H](Cc2cc(Cl)ccc2-c2ccc(N3CCOCC3)cc2)N(C)C1=O` [Example 261] ({cBuCO(3,3-F2-1-CF3)}-[Pro(trans-4-F)][Gly(cPr)][NMehhhLys(Me)]L[NMePhe(2-(4-MorPh),5-Cl)]; lactam 3-C), the 50% growth inhibitory concentration (GI50) in test [1] stood at 10 nM; in test [4] it was 10 nM; in test [5], 14100 nM. Further, the IC50 in test [2] was 20 nM; in test [3], 430 nM; in test [6], 20 nM.
Turning to `CC(C)C[C@@H]1NC(=O)[C@@H](N(C)C(=O)[C@@H](NC(=O)[C@@H]2C[C@@H](F)CN2C(=O)C2(C(F)(F)F)CC(F)(F)C2)C2CC2)CCCCCCCN(C)C(=O)[C@H](Cc2cc(Cl)ccc2-c2ccc(S(C)(=O)=O)cc2)N(C)C1=O` [Example 262] ({cBuCO(3,3-F2-1-CF3)}-[Pro(trans-4-F)][Gly(cPr)][NMehhhLys(Me)]L[X46]; lactam 3-C), the GI50 in test [1] worked out at 10 nM; in test [4], 20 nM; in test [5] it was 16200 nM. The figures for the IC50 in test [2], in test [3] and in test [6] were 20 nM, 910 nM and 20 nM, respectively.
`Cc1ccc(Cl)cc1C[C@H]1C(=O)NCCCCCCC[C@H](N(C)C(=O)[C@@H](NC(=O)[C@@H]2C[C@@H](F)CN2C(=O)C2(C(F)(F)F)CC(F)(F)C2)C2CC2)C(=O)N[C@@H](CC(C)C)C(=O)N1C` [Example 270] ({cBuCO(3,3-F2-1-CF3)}-[Pro(trans-4-F)][Gly(cPr)][NMe(hhhLys)]L[X4]; lactam 3-C): the GI50 worked out at 80 nM in test [1], 70 nM in test [4] and 13400 nM in test [5]. Besides, the IC50 in test [2] came out at 60 nM; in test [3] it was 370 nM; in test [6] it was 20 nM.
`COc1ncc(Cl)cc1C[C@H]1C(=O)NCCCCCCC[C@H](N(C)C(=O)[C@@H](NC(=O)[C@@H]2C[C@@H](F)CN2C(=O)[C@@]2(C(F)(F)F)CCCCO2)C2CC2)C(=O)N[C@@H](CC(C)C)C(=O)N1C` [Example 274] ({Oxane2carbonyl(2R-CF3)}-[Pro(trans-4-F)][Gly(cPr)][NMe(hhhLys)]L[NMe3Pal(2-OMe,5-Cl)]; lactam 3-C): the GI50 worked out at 10 nM in test [1], 10 nM in test [4] and 10500 nM in test [5]. The values for the concentration for half-maximal inhibition (IC50) in test [2], in test [3] and in test [6] were 30 nM, 100 nM and 20 nM, respectively.
In the case of `CC(C)C[C@@H]1NC(=O)[C@@H](N(C)C(=O)[C@@H](NC(=O)[C@@H]2C[C@@H](F)CN2C(=O)C2(C(F)(F)F)CC(F)(F)C2)C2CC2)CCCCCCCNC(=O)[C@H](Cc2cc(Cl)ccc2-c2cccnc2)N(C)C1=O` [Example 276] ({cBuCO(3,3-F2-1-CF3)}-[Pro(trans-4-F)][Gly(cPr)][NMe(hhhLys)]L[X66]; lactam 3-C), the values for the GI50 in test [1], in test [4] and in test [5] were 20 nM, 20 nM and 23400 nM, respectively. In addition, the figures for the concentration for half-maximal inhibition (IC50) in test [2], in test [3] and in test [6] were 30 nM, 700 nM and 20 nM, respectively.
On to `CC(C)C[C@@H]1NC(=O)[C@@H](N(C)C(=O)[C@@H](NC(=O)[C@@H]2C[C@@H](F)CN2C(=O)[C@@]2(C(F)(F)F)CCCCO2)C2CC2)CCCCCCCN(C)C(=O)[C@H](Cc2cc(Cl)ccc2-c2cnn(S(=O)(=O)C3CC3)c2)N(C)C1=O` [Example 283] ({Oxane2carbonyl(2R-CF3)}-[Pro(trans-4-F)][Gly(cPr)][NMehhhLys(Me)]L[X42]; lactam 3-C), for which the 50% growth inhibitory concentration (GI50) in test [1] is 10 nM; in test [4], 10 nM; in test [5], 14200 nM. Further, the IC50 in test [2] came to 30 nM; in test [3], 180 nM; in test [6], 20 nM.
For the molecule `CC(=O)N1CC=C(c2ccc(Cl)cc2C[C@H]2C(=O)NCCC=CCCC[C@H](N(C)C(=O)[C@@H](NC(=O)[C@@H]3C[C@@H](F)CN3C(=O)C3(C(F)(F)F)CC(F)(F)C3)C3CC3)C(=O)N[C@@H](CC(C)C)C(=O)N2C)CC1` [Example 286], the figures for the GI50 in test [1], in test [4] and in test [5] were 60 nM, 50 nM and 6500 nM, respectively. Besides, the IC50 in test [2] worked out at 80 nM; in test [3] it was 4020 nM; in test [6], 20 nM.
Regarding `CC(=O)N1CCC(=Cc2ccc(Cl)cc2C[C@H]2C(=O)NCCCCCCC[C@H](N(C)C(=O)[C@@H](NC(=O)[C@@H]3C[C@@H](F)CN3C(=O)C3(C(F)(F)F)CC(F)(F)C3)C3CC3)C(=O)N[C@@H](CC(C)C)C(=O)N2C)CC1` [Example 288] ({cBuCO(3,3-F2-1-CF3)}-[Pro(trans-4-F)][Gly(cPr)][NMe(hhhLys)]L[X18]; lactam 3-C), the 50% growth inhibitory concentration (GI50) in test [1] turned out to be 20 nM; in test [4], 20 nM; in test [5], 13800 nM. Also, the figures for the IC50 in test [2], in test [3] and in test [6] were 30 nM, 360 nM and 20 nM, respectively.
For `CC(=O)N1CCC(=Cc2ccc(Cl)cc2C[C@H]2C(=O)N(C)CCCCCCC[C@H](N(C)C(=O)[C@@H](NC(=O)[C@@H]3C[C@@H](F)CN3C(=O)C3(C(F)(F)F)CC(F)(F)C3)C3CC3)C(=O)N[C@@H](CC(C)C)C(=O)N2C)CC1` [Example 289] ({cBuCO(3,3-F2-1-CF3)}-[Pro(trans-4-F)][Gly(cPr)][NMehhhLys(Me)]L[X18]; lactam 3-C), the concentration for 50% growth inhibition (GI50) in test [1] amounted to 10 nM; in test [4] it was 10 nM; in test [5], 3780 nM. Besides, the IC50 in test [2] came out at 30 nM; in test [3] it was 320 nM; in test [6] it was 20 nM.
As to `CC(C)C[C@@H]1NC(=O)[C@@H](N(C)C(=O)[C@@H](NC(=O)[C@@H]2C[C@@H](F)CN2C(=O)C2(C(F)(F)F)CC(F)(F)C2)C2CC2)CCCCCCCN(C)C(=O)[C@H](Cc2cc(Cl)ccc2-c2cnn3cccnc23)N(C)C1=O` [Example 297] ({cBuCO(3,3-F2-1-CF3)}-[Pro(trans-4-F)][Gly(cPr)][NMehhhLys(Me)]L[X76]; lactam 3-C), the GI50 is 20 nM in test [1], 30 nM in test [4] and 9150 nM in test [5]. Also, the values for the concentration for half-maximal inhibition (IC50) in test [2], in test [3] and in test [6] were 40 nM, 1270 nM and 20 nM, respectively.
Consider `CC(C)C[C@@H]1NC(=O)[C@@H](N(C)C(=O)[C@@H](NC(=O)[C@@H]2C[C@@H](F)CN2C(=O)[C@@]2(C(F)(F)F)CCCCO2)C2CC2)CCCCCCCN(C)C(=O)[C@H](Cc2cc(Cl)ccc2-c2cnn(S(C)(=O)=O)c2)N(C)C1=O` [Example 299] ({Oxane2carbonyl(2R-CF3)}-[Pro(trans-4-F)][Gly(cPr)][NMehhhLys(Me)]L[X82]; lactam 3-C), for which the figures for the GI50 in test [1], in test [4] and in test [5] were 10 nM, 10 nM and 14300 nM, respectively. Further, the IC50 in test [2] came to 20 nM; in test [3] it was 130 nM; in test [6] it was 20 nM.
